Assay results taken from patent US20230158025A1 (UNIVERSITY OF UTAH RESEARCH FOUNDATION, priority 2020, published 2023).
Like-named read-outs stand apart in the source and are kept apart here.

What was measured:
recombinant human GALK1 = recombinant human GALK1 (Homo sapiens, UniProt P51570); assay: hGALK1 biochemical activity assay (Kinase-Glo Plus, ATP depletion)
Outline: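 Turnover is measured as ATP depletion by Kinase-Glo Plus luminescence after a 1 h room-temperature reaction. Compounds span 11 concentrations, 57.4 μM–0.97 nM, in final 20 mM HEPES pH 8.0 with 5 mM MgCl2. The substrate solution held 35 μM ATP; the added solution held 5 nM human or mouse GALK1 and 100 μM galactose.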

recombinant mouse GALK1 = recombinant mouse GALK1 (Mus musculus, UniProt Q9R0N0); assay: mGALK1 biochemical activity assay (Kinase-Glo Plus, ATP depletion)
Sequence of recombinant mouse GALK1 (Q9R0N0 whole entry): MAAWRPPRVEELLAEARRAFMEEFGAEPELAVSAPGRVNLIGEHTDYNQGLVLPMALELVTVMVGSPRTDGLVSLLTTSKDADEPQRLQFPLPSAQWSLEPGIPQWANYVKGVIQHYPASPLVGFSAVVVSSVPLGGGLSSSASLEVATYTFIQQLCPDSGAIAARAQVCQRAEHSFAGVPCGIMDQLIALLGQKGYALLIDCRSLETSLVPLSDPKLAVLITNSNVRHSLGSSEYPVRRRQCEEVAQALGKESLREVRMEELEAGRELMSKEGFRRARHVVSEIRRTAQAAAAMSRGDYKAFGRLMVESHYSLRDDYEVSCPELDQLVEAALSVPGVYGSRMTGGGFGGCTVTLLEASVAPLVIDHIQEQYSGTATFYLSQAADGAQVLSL
Outline: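 Recombinant GALK1 (5 nM) with 100 μM galactose; GALK1 turnover read as ATP depletion by Kinase-Glo Plus luminescence. Reaction ran 1 h at room temperature before detection reagent was added.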

[1] = rat microsomal stability (RLM); conditions: microsomal half-life
[2] = aqueous kinetic solubility
[3] = recombinant human GALK1, Kinase-Glo Plus ATP depletion, read-out: hGALK
[4] = recombinant mouse GALK1, Kinase-Glo Plus ATP depletion, read-out: mGALK
[5] = Tables 2-15, 35 μM ATP, 100 μM galactose, 1 h, bracketed figure after some values (e.g. −1.2) is undefined and not reported, read-out: hGALK IC50
[6] = Tables 2-15, 35 μM ATP, 100 μM galactose, 1 h, bracketed figure after some values is undefined and not reported, read-out: mGALK IC50

Sequence of recombinant human GALK1 (P51570 whole entry): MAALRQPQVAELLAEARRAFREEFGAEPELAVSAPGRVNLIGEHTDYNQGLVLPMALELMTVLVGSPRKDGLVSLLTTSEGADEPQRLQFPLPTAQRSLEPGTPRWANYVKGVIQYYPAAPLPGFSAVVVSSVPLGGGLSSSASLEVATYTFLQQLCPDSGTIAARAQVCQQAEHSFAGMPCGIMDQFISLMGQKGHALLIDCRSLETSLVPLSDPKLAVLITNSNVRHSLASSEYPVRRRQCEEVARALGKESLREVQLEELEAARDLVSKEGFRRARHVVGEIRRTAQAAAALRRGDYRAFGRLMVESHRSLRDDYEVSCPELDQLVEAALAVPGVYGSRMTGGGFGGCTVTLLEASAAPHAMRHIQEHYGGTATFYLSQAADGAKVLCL

SMILES	IC50 (recombinant human GALK1; [3]) [µM]	IC50 (recombinant mouse GALK1; [4]) [µM]	Metab. Stabil. (m) [1] [m]	Sol. [2] [µg/mL]	Perm. (1 × 10^−6 cm/sec) (PAMPA permeability)	IC50 (recombinant human GALK1; [5]) [µM]	IC50 (recombinant mouse GALK1; [6]) [µM]
CC1=C(C(=O)Nc2cc(C(=O)O)ccn2)[C@H](c2ccc(C)cc2Cl)N=C(Nc2nc3ccc(F)cc3o2)N1 [Compound 55, (R)-2-(4-(2-chloro-4-methylphenyl)-2-((6-fluorobenzo[d]oxazol-2-yl)amino)-6-methyl-1,4-dihydropyrimidine-5-carboxamido)isonicotinic acid]	0.15	1.37	>30	>79	<1 1 × 10^−6 cm/sec	15	1.37
CC1=C(C(=O)Nc2cc(C(=O)O)ccn2)C(c2ccc(N3CCCC3)cc2Cl)N=C(Nc2nc3ccc(F)cc3o2)N1 (centres unmarked) [Compound 57, 2-(4-(2-chloro-4-(pyrrolidin-1-yl)phenyl)-2-((6-fluorobenzo[d]oxazol-2-yl)amino)-6-methyl-1,4-dihydropyrimidine-5-carboxamido)isonicotinic acid]	4.09	10.9	>30	>87	<1 1 × 10^−6 cm/sec	1.09	10.9
CC1=C(C(=O)Nc2cc(C(=O)O)ccn2)C(c2ccc(N3CCCCC3)cc2Cl)N=C(Nc2nc3ccc(F)cc3o2)N1 (centres unmarked) [Compound 58, 2-(4-(2-chloro-4-(piperidin-1-yl)phenyl)-2-((6-fluorobenzo[d]oxazol-2-yl)amino)-6-methyl-1,4-dihydropyrimidine-5-carboxamido)isonicotinic acid]	–	12.2	>30	1.92	1.35 1 × 10^−6 cm/sec	1.22	12.2
CC1=C(C(=O)Nc2cc(C(=O)O)ccn2)C(c2ccc(N3CCOCC3)cc2Cl)N=C(Nc2nc3ccc(F)cc3o2)N1 (centres unmarked) [Compound 59, 2-(4-(2-chloro-4-morpholinphenyl)-2-((6-fluorobenzo[d]oxazol-2-yl)amino)-6-methyl-1,4-dihydropyrimidine-5-carboxamido)isonicotinic acid]	0.43	3.85	>30	>89	26.5 1 × 10^−6 cm/sec	–	3.85
CC1=C(C(=O)Nc2cc(C(=O)O)ccn2)C(c2ccc(-n3cccn3)cc2Cl)N=C(Nc2nc3ccc(F)cc3o2)N1 (centres unmarked) [Compound 60, 2-(4-(2-chloro-4-(1H-pyrazol-1-yl)phenyl)-2-((6-fluorobenzo[d]oxazol-2-yl)amino)-6-methyl-1,4-dihydropyrimidine-5-carboxamido)isonicotinic acid]	0.77	3.43	>30	>87	<1 1 × 10^−6 cm/sec	–	–
CC1=C(C(=O)Nc2cc(C(=O)O)ccn2)C(c2ccc(C(F)(F)F)cc2Cl)N=C(Nc2nc3ccc(F)cc3o2)N1 (centres unmarked) [Compound 61, 2-(4-(2-chloro-4-(trifluoromethyl)phenyl)-2-((6-fluorobenzo[d]oxazol-2-yl)amino)-6-methyl-1,4-dihydropyrimidine-5-carboxamido)isonicotinic acid]	1.53	10.9	>30	19.4	<1 1 × 10^−6 cm/sec	1.53	10.9
CC1=C(C(=O)Nc2cc(C(=O)O)ccn2)C(c2cccc([N+](=O)[O-])c2Cl)N=C(Nc2nc3ccc(F)cc3o2)N1 (centres unmarked) [Compound 63, 2-(4-(2-chloro-3-nitrophenyl)-2-((6-fluorobenzo[d]oxazol-2-yl)amino)-6-methyl-1,4-dihydropyrimidine-5-carboxamido)isonicotinic acid]	19.3	34.3	>30	>84	<1 1 × 10^−6 cm/sec	–	–

The next lines start with the values.

IC50 (recombinant human GALK1; [3]) [µM]	IC50 (recombinant mouse GALK1; [4]) [µM]	Metab. Stabil. (m) [1] [m]	Sol. [2] [µg/mL]	Perm. (1 × 10^−6 cm/sec) (PAMPA permeability)	IC50 (recombinant human GALK1; [5]) [µM]	IC50 (recombinant mouse GALK1; [6]) [µM]	SMILES
13.7	13.7	>30	<1	<7.8 1 × 10^−6 cm/sec	–	–	CC1=C(C(=O)Nc2ccc(C#N)cn2)C(c2ccccc2Cl)N=C(Nc2nc3ccc(F)cc3o2)N1 (centres unmarked) [Compound 40, 4-(2-chlorophenyl)-N-(5-cyanopyridin-2-yl)-2-((6-fluorobenzo[d]oxazol-2-yl)amino)-6-methyl-1,4-dihydropyrimidine-5-carboxamide]
0.77	7.69	>30	29.9	<1 1 × 10^−6 cm/sec	0.77	7.69	CC1=C(C(=O)Nc2cc(-c3nn[nH]n3)ccn2)C(c2ccccc2Cl)N=C(Nc2nc3ccc(F)cc3o2)N1 (centres unmarked) [Compound 41, N-(4-(2H-tetrazol-5-yl)pyridin-2-yl)-4-(2-chlorophenyl)-2-((6-fluorobenzo[d]oxazol-2-yl)amino)-6-methyl-1,4-dihydropyrimidine-5-carboxamide]
4.32	10.9	>30	<1	171.11 1 × 10^−6 cm/sec	–	–	CC1=C(C(=O)Nc2ccccn2)C(c2ccccc2Cl)N=C(Nc2nc3ccc(F)cc3o2)N1 (centres unmarked) [Compound 43, 4-(2-chlorophenyl)-2-((6-fluorobenzo[d]oxazol-2-yl)amino)-6-methyl-N-(pyridin-2-yl)-1,4-dihydropyrimidine-5-carboxamide]
1.72	12.2	26	13.7	942.87 1 × 10^−6 cm/sec	–	–	CC1=C(C(=O)NCc2cnn(C)c2)C(c2ccccc2Cl)N=C(Nc2nc3ccc(F)cc3o2)N1 (centres unmarked) [Compound 44, 4-(2-chlorophenyl)-2-((6-fluorobenzo[d]oxazol-2-yl)amino)-6-methyl-N-((1-methyl-1H-pyrazol-4-yl)methyl)-1,4-dihydropyrimidine-5-carboxamide]
1.93	6.85	>30	53.8	<1 1 × 10^−6 cm/sec	1.93	6.85	CC1=C(C(=O)Nc2cc(C(=O)O)ccn2)[C@@H](c2ccc(C)cc2Cl)N=C(Nc2nc3ccc(F)cc3o2)N1 [Compound 56, (S)-2-(4-(2-chloro-4-methylphenyl)-2-((6-fluorobenzo[d]oxazol-2-yl)amino)-6-methyl-1,4-dihydropyrimidine-5-carboxamido)isonicotinic acid]
1.09	3.85	>30	2.4	<1.7 1 × 10^−6 cm/sec	1.09	3.85	CC1=C(C(=O)Nc2cc(C(=O)O)ccn2)C(c2ccc(Br)cc2Cl)N=C(Nc2nc3ccc(F)cc3o2)N1 (centres unmarked) [Compound 62, 2-(4-(4-bromo-2-chlorophenyl)-2-((6-fluorobenzo[d]oxazol-2-yl)amino)-6-methyl-1,4-dihydropyrimidine-5-carboxamido)isonicotinic acid]
3.06	17.2	>30	>79	<1 1 × 10^−6 cm/sec	3.06	17.2	CC1=C(C(=O)Nc2cc(C(=O)O)ccn2)C(c2cccc(N)c2Cl)N=C(Nc2nc3ccc(F)cc3o2)N1 (centres unmarked) [Compound 64, 2-(4-(3-amino-2-chlorophenyl)-2-((6-fluorobenzo[d]oxazol-2-yl)amino)-6-methyl-1,4-dihydropyrimidine-5-carboxamido)isonicotinic acid]
